What all share (assay type): cell-based
In test [1] the target is HER2 (A775_G776insYVMA) expressing Ba/F3 stable cell line (Homo sapiens, UniProt P04626, DUP772-775, cells depend on it). Description: Cellular proliferation (Alamar Blue) assay, HER2 (A775_G776insYVMA) Ba/F3. The note with it: read-out: YVMA IC50. In short, it runs like this: (§1)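 Compound treatment lasted 72 h at 37 °C across a final 10-0.0005 μM range in 3-fold steps; cell growth was measured with Alamar Blue (3 h). Ba/F3 seeded at 15,000 and A431 at 5000 cells/well.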
On the technique in general: Resazurin is reduced to fluorescent resorufin, in cell work by metabolically active cells.

The subject of another test is A431 cells. Description: Cellular proliferation (Alamar Blue) assay, A431 cells. The conditions noted are these: Homo sapiens, A-431, 72 h, read-out: A431 IC50. The procedure, abridged:
as §1

The target in test [2] is EGFR (H773insNPH) expressing Ba/F3 stable cell line (Homo sapiens, UniProt P00533, DUP771-773, cells depend on it). Description: Cellular proliferation (Alamar Blue) assay, EGFR (H773insNPH) Ba/F3. On the procedure: Cell line details: • 1. EGFR(D770_N771insSVD) expressing Ba/F3 stable cell line • 2. EGFR (A767_dupASV) expressing Ba/F3 stable cell line • 3. A431 cells • 4. EGFR (H773insNPH) expressing Ba/F3 stable cell line • 5. HER2 (A775_G776insYVMA) expressing Ba/F3 stable cell line
• 1. Seed cells at 5000 for A431 and 15,000 cells for Ba/F3 in 100 μL/well in complete media (for A431: DMEM with 10% FBS and for Ba/F3 cells: RPMI with 10% FBS) in 96-well tissue culture plate. Leave outer wells without cells for background measurements. Incubate at 37 degree Celsius in 5% CO2 humidified incubator for 16-18 hours. • 2. Add 0.025 ml of 5X concentration compound dilution or DMSO control. Final compound concentration range is 10-0.0005 μM prepared in 3-fold serial dilutions. Incubate for 72 hr at 37 degree Celsius in 5% CO2 humidified incubator. • 3. Add 0.0125 ml Alamar Blue™ reagent to each well with multi-channel pipette and tap gently on each side of the plate to mix. Incubate for 3 hours at 37 degree Celsius in 5% CO2 humidified incubator. • 4. […] Data analysis was performed using XLfit 5.5.0.5.

In test [3] the target is EGFR(D770_N771insSVD) expressing Ba/F3 stable cell line (Homo sapiens, UniProt P00533, DUP768-770, cells depend on it). The test can be described thus: Cellular proliferation (Alamar Blue) assay, EGFR(D770_N771insSVD) Ba/F3. The procedure, abridged: as §1
For test [4], the target named is EGFR (A767_dupASV) expressing Ba/F3 stable cell line (Homo sapiens, UniProt P00533, DUP767-769, cells depend on it). The test can be described thus: Cellular proliferation (Alamar Blue) assay, EGFR (A767_dupASV) Ba/F3. The procedure, abridged:
as §1

The mark [5] stands for this setting: HER2 (A775_G776insYVMA) Ba/F3 cells, 72 hr, Alamar Blue.

pIC50: −log10 of the molar value. Where two headings read alike, the source gives them in different places.

Chain of EGFR(D770_N771insSVD) expressing Ba/F3 stable cell line (P00533 with tags, fused parts or gaps DUP768-770): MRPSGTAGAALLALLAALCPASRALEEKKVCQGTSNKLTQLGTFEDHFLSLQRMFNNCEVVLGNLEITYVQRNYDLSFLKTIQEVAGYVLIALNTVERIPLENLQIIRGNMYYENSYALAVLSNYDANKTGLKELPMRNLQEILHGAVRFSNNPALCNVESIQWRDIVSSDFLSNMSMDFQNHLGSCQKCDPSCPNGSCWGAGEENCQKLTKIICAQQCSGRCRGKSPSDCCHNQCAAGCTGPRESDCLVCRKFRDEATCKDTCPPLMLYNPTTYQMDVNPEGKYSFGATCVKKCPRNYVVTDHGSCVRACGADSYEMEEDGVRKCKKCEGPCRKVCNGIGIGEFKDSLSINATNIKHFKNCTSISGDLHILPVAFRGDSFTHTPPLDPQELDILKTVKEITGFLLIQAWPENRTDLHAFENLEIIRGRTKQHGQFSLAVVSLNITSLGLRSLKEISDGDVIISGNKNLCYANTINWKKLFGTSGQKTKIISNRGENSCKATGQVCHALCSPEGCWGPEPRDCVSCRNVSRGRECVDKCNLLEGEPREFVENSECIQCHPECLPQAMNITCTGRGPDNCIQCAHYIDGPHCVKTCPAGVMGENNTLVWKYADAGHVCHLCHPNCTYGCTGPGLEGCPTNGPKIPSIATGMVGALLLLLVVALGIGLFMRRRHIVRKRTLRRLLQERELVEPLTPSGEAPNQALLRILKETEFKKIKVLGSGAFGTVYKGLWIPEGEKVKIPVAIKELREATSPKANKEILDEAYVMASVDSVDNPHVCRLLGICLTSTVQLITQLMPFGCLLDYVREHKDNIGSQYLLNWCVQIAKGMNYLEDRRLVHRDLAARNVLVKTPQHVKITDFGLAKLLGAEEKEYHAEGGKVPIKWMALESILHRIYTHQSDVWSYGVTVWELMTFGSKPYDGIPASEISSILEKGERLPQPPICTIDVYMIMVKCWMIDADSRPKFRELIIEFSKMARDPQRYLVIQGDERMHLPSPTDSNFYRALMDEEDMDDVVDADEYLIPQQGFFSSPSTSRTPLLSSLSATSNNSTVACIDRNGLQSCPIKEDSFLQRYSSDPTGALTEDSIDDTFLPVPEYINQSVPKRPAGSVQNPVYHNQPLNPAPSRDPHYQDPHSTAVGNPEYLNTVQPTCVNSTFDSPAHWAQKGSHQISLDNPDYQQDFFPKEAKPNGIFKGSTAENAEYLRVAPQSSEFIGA
Chain of HER2 (A775_G776insYVMA) expressing Ba/F3 stable cell line (P04626 with tags, fused parts or gaps DUP772-775): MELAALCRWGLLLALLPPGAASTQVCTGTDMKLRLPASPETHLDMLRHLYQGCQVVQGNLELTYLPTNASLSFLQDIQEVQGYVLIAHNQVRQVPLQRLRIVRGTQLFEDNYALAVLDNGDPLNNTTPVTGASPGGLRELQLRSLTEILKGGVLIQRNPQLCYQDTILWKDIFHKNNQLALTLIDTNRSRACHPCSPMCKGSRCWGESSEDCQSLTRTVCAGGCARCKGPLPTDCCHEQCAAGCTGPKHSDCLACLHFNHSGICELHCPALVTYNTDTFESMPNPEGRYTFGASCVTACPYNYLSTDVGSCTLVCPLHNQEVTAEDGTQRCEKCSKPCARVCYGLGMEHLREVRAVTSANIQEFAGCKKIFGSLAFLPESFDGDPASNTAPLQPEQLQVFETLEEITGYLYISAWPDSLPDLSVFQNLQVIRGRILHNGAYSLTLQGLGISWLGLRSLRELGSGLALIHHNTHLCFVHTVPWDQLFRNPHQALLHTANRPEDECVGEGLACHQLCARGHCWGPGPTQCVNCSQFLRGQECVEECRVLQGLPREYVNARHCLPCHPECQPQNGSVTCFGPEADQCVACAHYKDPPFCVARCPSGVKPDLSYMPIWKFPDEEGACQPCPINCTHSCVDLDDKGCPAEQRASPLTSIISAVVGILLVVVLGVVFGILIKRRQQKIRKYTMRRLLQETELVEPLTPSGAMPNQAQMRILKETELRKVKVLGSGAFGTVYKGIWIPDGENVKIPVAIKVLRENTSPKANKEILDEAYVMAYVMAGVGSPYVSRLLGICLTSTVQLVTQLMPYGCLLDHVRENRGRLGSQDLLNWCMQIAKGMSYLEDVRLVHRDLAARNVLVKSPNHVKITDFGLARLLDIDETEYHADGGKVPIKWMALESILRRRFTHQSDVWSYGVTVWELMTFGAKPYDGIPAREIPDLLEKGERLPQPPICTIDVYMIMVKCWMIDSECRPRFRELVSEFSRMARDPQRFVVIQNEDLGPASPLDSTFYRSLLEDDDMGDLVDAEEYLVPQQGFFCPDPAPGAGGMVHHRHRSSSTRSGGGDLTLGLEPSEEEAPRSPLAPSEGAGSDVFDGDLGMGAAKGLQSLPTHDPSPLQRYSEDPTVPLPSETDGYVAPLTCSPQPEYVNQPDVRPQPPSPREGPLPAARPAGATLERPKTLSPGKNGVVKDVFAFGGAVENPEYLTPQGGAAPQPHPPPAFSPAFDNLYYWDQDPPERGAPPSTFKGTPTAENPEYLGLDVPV
Chain of EGFR (H773insNPH) expressing Ba/F3 stable cell line (P00533 with tags, fused parts or gaps DUP771-773): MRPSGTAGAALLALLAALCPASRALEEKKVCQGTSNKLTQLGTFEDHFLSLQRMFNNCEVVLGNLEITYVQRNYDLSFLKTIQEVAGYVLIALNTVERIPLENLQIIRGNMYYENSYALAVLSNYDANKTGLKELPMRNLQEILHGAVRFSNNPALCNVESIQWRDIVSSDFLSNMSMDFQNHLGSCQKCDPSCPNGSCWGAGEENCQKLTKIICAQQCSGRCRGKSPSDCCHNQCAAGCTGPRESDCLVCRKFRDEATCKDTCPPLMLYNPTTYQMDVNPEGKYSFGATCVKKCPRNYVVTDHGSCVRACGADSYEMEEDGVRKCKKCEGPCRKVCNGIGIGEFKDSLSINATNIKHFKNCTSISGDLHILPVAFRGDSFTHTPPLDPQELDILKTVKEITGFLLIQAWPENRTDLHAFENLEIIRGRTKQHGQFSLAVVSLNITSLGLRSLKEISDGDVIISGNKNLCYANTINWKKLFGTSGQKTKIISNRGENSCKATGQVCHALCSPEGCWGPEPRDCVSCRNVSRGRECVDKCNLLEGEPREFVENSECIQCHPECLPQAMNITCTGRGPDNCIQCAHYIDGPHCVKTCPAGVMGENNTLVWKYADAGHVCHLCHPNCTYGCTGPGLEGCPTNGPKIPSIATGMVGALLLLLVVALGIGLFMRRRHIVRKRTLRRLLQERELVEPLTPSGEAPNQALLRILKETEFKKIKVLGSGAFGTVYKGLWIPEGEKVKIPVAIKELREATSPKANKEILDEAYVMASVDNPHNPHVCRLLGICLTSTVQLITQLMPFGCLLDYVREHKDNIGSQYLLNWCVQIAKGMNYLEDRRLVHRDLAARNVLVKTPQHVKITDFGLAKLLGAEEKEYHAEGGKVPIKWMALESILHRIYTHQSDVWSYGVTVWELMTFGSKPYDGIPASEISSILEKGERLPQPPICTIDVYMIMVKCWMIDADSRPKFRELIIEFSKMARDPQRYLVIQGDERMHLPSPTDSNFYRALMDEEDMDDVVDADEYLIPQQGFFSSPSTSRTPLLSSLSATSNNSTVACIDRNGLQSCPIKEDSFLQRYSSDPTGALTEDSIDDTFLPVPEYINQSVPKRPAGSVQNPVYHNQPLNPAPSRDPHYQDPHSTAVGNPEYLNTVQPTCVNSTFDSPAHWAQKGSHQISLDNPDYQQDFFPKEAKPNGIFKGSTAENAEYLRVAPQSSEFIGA
Chain of EGFR (A767_dupASV) expressing Ba/F3 stable cell line (P00533 with tags, fused parts or gaps DUP767-769): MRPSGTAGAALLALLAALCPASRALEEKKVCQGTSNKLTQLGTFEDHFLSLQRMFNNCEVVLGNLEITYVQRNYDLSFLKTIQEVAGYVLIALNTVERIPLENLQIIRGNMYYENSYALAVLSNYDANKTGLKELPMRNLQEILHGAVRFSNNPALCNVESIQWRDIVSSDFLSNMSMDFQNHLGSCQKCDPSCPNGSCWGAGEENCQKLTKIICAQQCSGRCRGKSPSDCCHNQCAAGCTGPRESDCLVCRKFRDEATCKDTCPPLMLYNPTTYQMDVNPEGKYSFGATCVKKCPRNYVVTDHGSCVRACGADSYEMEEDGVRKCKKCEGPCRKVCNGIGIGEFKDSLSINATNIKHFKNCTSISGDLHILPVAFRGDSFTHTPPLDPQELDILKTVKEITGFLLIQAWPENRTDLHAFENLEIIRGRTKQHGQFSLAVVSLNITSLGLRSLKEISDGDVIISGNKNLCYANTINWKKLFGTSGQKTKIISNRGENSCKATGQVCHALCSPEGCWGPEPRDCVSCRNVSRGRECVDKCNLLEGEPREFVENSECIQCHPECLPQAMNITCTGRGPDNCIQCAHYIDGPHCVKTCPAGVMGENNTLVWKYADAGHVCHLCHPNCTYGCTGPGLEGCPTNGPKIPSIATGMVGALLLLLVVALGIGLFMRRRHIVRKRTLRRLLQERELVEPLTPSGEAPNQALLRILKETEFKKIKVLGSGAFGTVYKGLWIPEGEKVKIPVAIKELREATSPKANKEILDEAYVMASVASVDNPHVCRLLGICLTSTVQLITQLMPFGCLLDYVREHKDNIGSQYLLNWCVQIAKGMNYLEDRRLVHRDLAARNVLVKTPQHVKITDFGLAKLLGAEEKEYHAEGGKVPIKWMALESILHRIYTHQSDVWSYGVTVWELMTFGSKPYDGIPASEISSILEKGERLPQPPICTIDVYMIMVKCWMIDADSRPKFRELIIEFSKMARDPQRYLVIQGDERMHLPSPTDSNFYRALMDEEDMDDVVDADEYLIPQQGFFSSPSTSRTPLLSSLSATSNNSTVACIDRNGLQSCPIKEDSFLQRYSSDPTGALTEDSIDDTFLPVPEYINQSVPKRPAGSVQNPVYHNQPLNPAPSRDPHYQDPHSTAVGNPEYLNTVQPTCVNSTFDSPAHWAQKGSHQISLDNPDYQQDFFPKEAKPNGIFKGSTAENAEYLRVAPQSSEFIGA

Usually pIC50 stands for −log10 of the IC50, conventionally taken in molar units. For `C=CC(=O)Nc1ccc(F)c(Nc2nc(Nc3cnn(C)c3)ncc2-c2cnc(Cl)c(F)c2)c1` [Compound 45, N-(3-((5-(6-chloro-5-fluoropyridin-3-yl)-2-((1-methyl-1H-pyrazol-4-yl)amino)pyrimidin-4-yl)amino)-4-fluorophenyl)acrylamide], the GI50 in test [1] (setting [5]) was 16 nM; in test [2] (72 hr, read-out: NPH IC50), 25 nM; in test [3] (72 hr, read-out: D770 IC50), 7 nM; in test [4] (72 hr, read-out: A767 IC50), 10 nM. For the same molecule, the pIC50 with A431 cells (A431 cells, 72 hr, Alamar Blue) was 7.46.
As for `C=CC(=O)Nc1ccc(F)c(Nc2nc(Nc3cnn(C)c3)ncc2-c2cnc(C)c(Cl)c2)c1` [Compound 46, N-(3-((5-(5-chloro-6-methylpyridin-3-yl)-2-((1-methyl-1H-pyrazol-4-yl)amino)pyrimidin-4-yl)amino)-4-fluorophenyl)acrylamide], the GI50 amounted to 34 nM in test [1] (setting [5]); 30 nM in test [2] (72 hr, read-out: NPH IC50); 17 nM in test [3] (72 hr, read-out: D770 IC50); 29 nM in test [4] (72 hr, read-out: A767 IC50). Moreover, the pIC50 in the test on A431 cells (A431 cells, 72 hr, Alamar Blue) is 6.99.
The like results for `C=CC(=O)Nc1ccc(F)c(Nc2nc(Nc3cnn(C)c3)ncc2-c2cnc(F)c(C(F)(F)F)c2)c1` [Compound 47, N-(4-fluoro-3-((5-(6-fluoro-5-(trifluoromethyl)pyridin-3-yl)-2-((1-methyl-1H-pyrazol-4-yl)amino)pyrimidin-4-yl)amino)phenyl)acrylamide] were, in that order, 25 nM, 20 nM, 21 nM, 34 nM and 7.34.
`C=CC(=O)Nc1cccc(Nc2nc(Nc3cnn(C)c3)ncc2-c2ccc(F)c(Cl)c2)c1` [Compound 49, N-(3-((5-(3-chloro-4-fluorophenyl)-2-((1-methyl-1H-pyrazol-4-yl)amino)pyrimidin-4-yl)amino)phenyl)acrylamide]: the GI50 in test [1] (setting [5]) amounted to 65 nM; in test [2] (72 hr, read-out: NPH IC50), 27 nM; in test [3] (72 hr, read-out: D770 IC50) it was 38 nM; in test [4] (72 hr, read-out: A767 IC50) it was 44 nM. Further, the pIC50 in the test on A431 cells (A431 cells, 72 hr, Alamar Blue) was 6.61.
The like results for `C=CC(=O)Nc1ccc(F)c(Nc2nc(Nc3cnn(C)c3)ncc2-c2ccc(Cl)c(Cl)c2)c1` [Compound 50, N-(3-((5-(3,4-dichlorophenyl)-2-((1-methyl-1H-pyrazol-4-yl)amino)pyrimidin-4-yl)amino)-4-fluorophenyl)acrylamide] were, in that order, 86 nM, 61 nM, 32 nM, 26 nM and 7.15.
The like results for `C=CC(=O)Nc1ccc(F)c(Nc2nc(Nc3cnn(C4COC4)c3)ncc2-c2ccc(F)c(Cl)c2)c1` [Compound 53, N-(3-((5-(3-chloro-4-fluorophenyl)-2-((1-(oxetan-3-yl)-1H-pyrazol-4-yl)amino)pyrimidin-4-yl)amino)-4-fluorophenyl)acrylamide] were, in that order, 211 nM, 153 nM, 104 nM, 119 nM and 5.91.
For `C=CC(=O)Nc1ccc(F)c(Nc2nc(Nc3cnn(C4COC4)c3)ncc2-c2ccc(Cl)c(Cl)c2)c1` [Compound 56, N-(3-((5-(3,4-dichlorophenyl)-2-((1-(oxetan-3-yl)-1H-pyrazol-4-yl)amino)pyrimidin-4-yl)amino)-4-fluorophenyl)acrylamide], in that order: 118 nM, 84 nM, 104 nM, 95 nM and 6.23.
On to `C=CC(=O)Nc1ccc(F)c(Nc2nc(Nc3cnn(CCN(C)C)c3)ncc2-c2ccc(F)c(Cl)c2)c1` [Compound 57, N-(3-((5-(3-chloro-4-fluorophenyl)-2-((1-(2-(dimethylamino)ethyl)-1H-pyrazol-4-yl)amino)pyrimidin-4-yl)amino)-4-fluorophenyl)acrylamide], for which the GI50 in test [1] (her2 (a775_g776insyvma) expressing ba/f3 stable cell line) came out at 112 nM; in test [2] (read-out: NPH IC50, 72 hr), 62 nM; in test [3] (read-out: D770 IC50, 72 hr), 111 nM; in test [4] (read-out: A767 IC50, 72 hr) it was 207 nM. The pIC50 in the test on A431 cells was 6.16.
For the molecule `C=CC(=O)Nc1ccc(F)c(Nc2nc(Nc3cnn(CCN(C)C)c3)ncc2-c2ccc(Cl)c(Cl)c2)c1` [Compound 58, N-(3-((5-(3,4-dichlorophenyl)-2-((1-(2-(dimethylamino)ethyl)-1H-pyrazol-4-yl)amino)pyrimidin-4-yl)amino)-4-fluorophenyl)acrylamide], the GI50 is 100 nM in test [1] (setting [5]); 214 nM in test [2] (72 hr, read-out: NPH IC50); 130 nM in test [3] (72 hr, read-out: D770 IC50); 257 nM in test [4] (72 hr, read-out: A767 IC50). Besides, the pIC50 with A431 cells (A431 cells, 72 hr, Alamar Blue) is 7.07.
The like results for `C=CC(=O)Nc1ccc(F)c(Nc2nc(Nc3cnn(C)c3)ncc2-c2ccc(CN(C)C)c(F)c2)c1` [Compound 60, N-(3-((5-(4-((dimethylamino)methyl)-3-fluorophenyl)-2-((1-methyl-1H-pyrazol-4-yl)amino)pyrimidin-4-yl)amino)-4-fluorophenyl)acrylamide] were, in that order, 952 nM, 462 nM, 170 nM, 150 nM and 5.93.
In the case of `C=CC(=O)Nc1ccc(F)c(Nc2nc(Nc3cnn(CCO)c3)ncc2-c2ccc(F)c(Cl)c2)c1` [Compound 62, N-(3-((5-(3-chloro-4-fluorophenyl)-2-((1-(2-hydroxyethyl)-1H-pyrazol-4-yl)amino)pyrimidin-4-yl)amino)-4-fluorophenyl)acrylamide], the GI50 is 103 nM in test [1] (setting [5]); 91 nM in test [2] (72 hr, read-out: NPH IC50); 75 nM in test [3] (72 hr, read-out: D770 IC50); 80 nM in test [4] (72 hr, read-out: A767 IC50). In the test with A431 cells (A431 cells, 72 hr, Alamar Blue), the pIC50 is 6.00.
The like results for `C=CC(=O)Nc1ccc(F)c(Nc2nc(Nc3cnn(C)c3)ncc2-c2cc(C)cc(F)c2)c1` [Compound 64, N-(4-fluoro-3-((5-(3-fluoro-5-methylphenyl)-2-((1-methyl-1H-pyrazol-4-yl)amino)pyrimidin-4-yl)amino)phenyl)acrylamide] were, in that order, 159 nM, 95 nM, 61 nM, 104 nM and 6.26.
As for `C=CC(=O)Nc1ccc(F)c(Nc2nc(Nc3cnn(C)c3)ncc2-c2cc(F)cc(OC)c2)c1` [Compound 65, N-(4-fluoro-3-{[5-(3-fluoro-5-methoxyphenyl)-2-[(1-methyl-1H-pyrazol-4-yl)amino]pyrimidin-4-yl]amino}phenyl)prop-2-enamide], the GI50 came to 112 nM in test [1] (setting [5]); 304 nM in test [2] (72 hr, read-out: NPH IC50); 114 nM in test [3] (72 hr, read-out: D770 IC50); 226 nM in test [4] (72 hr, read-out: A767 IC50). In the test on A431 cells (A431 cells, 72 hr, Alamar Blue), the pIC50 is 5.97.
For `C=CC(=O)Nc1cccc(Nc2nc(Nc3cnn(C)c3)ncc2-c2cc(F)cc(Cl)c2)c1` [Compound 66, N-(3-((5-(3-chloro-5-fluorophenyl)-2-((1-methyl-1H-pyrazol-4-yl)amino)pyrimidin-4-yl)amino)phenyl)acrylamide], in that order: 47 nM, 14 nM, 15 nM, 26 nM and 7.26.
In the case of `C=CC(=O)Nc1cccc(Nc2nc(Nc3cnn(C)c3)ncc2-c2ccc(F)c(F)c2)c1` [Compound 67, N-(3-((5-(3,4-difluorophenyl)-2-((1-methyl-1H-pyrazol-4-yl)amino)pyrimidin-4-yl)amino)phenyl)acrylamide], the GI50 in test [1] (setting [5]) turned out to be 60 nM; in test [2] (72 hr, read-out: NPH IC50) it was 100 nM; in test [3] (72 hr, read-out: D770 IC50), 36 nM; in test [4] (72 hr, read-out: A767 IC50), 41 nM. Moreover, the pIC50 with A431 cells (A431 cells, 72 hr, Alamar Blue) was 6.67.
For `C=CC(=O)Nc1ccc(F)c(Nc2nc(Nc3cnn(C)c3)ncc2-c2ccc(N3CCOCC3)c(F)c2)c1` [Compound 76, N-[4-fluoro-3-({5-[3-fluoro-4-(morpholin-4-yl)phenyl]-2-[(1-methyl-1H-pyrazol-4-yl)amino]pyrimidin-4-yl}amino)phenyl]prop-2-enamide], in that order: 240 nM, 236 nM, 220 nM, 72 nM and 5.90.
